Data as given in ChEMBL document CHEMBL5661943, “ASAP - In vitro antiviral effect” (2024).
Several values for one entry are separate records, joined by “and”; a condition that tells them apart may be missing. Equal entries are not always repeated.

What was measured:
[1] = system: dengue virus type 2; assay: Functional assay to measure dose dependent changes in antiviral-drug inhibitory efficacy against Dengue virus type 2 New Guinea C in Vero E6 miRFP670 cells (cotreated with P-gp inhibitor, CP100356). Cells are treated with antiviral candidates that are serially diluted, following infection, cells are fixed. EC50 is reported via analysis of fluorescence intensity using high-content imager. The …; type: organism-based, Chlorocebus sabaeus, Vero C1008
[2] = system: Zika virus; assay: (§1) Functional CPE-based assay to measure dose dependent changes in antiviral-drug inhibitory efficacy against Zika virus MR766 in Vero E6 miRFP670 cells (cotreated with P-gp inhibitor, CP100356). Cells are treated with antiviral candidates that are serially diluted. EC50 is reported via analysis of MTS assay as a readout of CPE. The assay has been performed by KU Leuven.; type: organism-based, Chlorocebus sabaeus, Vero C1008; details: for EC90: Baseline response 0 %, Maximum response 100 %, P-gp inhibitor CP100356
[3] = system: dengue virus type 2; assay: (§2) Functional immunofluorescence assay to measure dose dependent changes in antiviral-drug inhibitory efficacy against Dengue virus type 2 Thailand/16681/84 in Vero E6/TMPRSS2 cells (cotreated with P-gp inhibitor, Elacridar). Cells are treated with antiviral candidates that are serially diluted, following infection, cells are fixed. EC50 is reported via analysis of immunofluorescence staining. The assay has been performed by Icahn School of Medicine at Mount Sinai.; type: organism-based, Chlorocebus sabaeus, VeroE6/TMPRSS2
[4] = system: Zika virus; assay: EC50 is reported via analysis of immunofluorescence staining. The assay has been performed by Icahn School of Medicine at Mount Sinai.; type: functional, organism-based, Chlorocebus sabaeus, VeroE6/TMPRSS2
[5] = system: Zika virus; assay: as §1, with “cells.” for “cells (cotreated with P-gp inhibitor, CP100356).”; type: organism-based, Chlorocebus sabaeus, Vero C1008
[6] = system: dengue virus type 2; assay: Functional assay to measure dose dependent changes in antiviral-drug inhibitory efficacy against Dengue virus type 2 New Guinea C in Vero E6 miRFP670 cells. Cells are treated with antiviral candidates that are serially diluted, following infection, cells are fixed. EC50 is reported via analysis of fluorescence intensity using high-content imager. The assay has been performed by KU Leuven.; type: organism-based, Chlorocebus sabaeus
[7] = system: Zika virus; assay: as §2, with “Zika” for “Dengue”, “PRVABC59” for “type 2 Thailand/16681/84”, “cells.” for “cells (cotreated with P-gp inhibitor, Elacridar).”; type: organism-based, Chlorocebus sabaeus; details: for EC50: VeroE6/TMPRSS2
[8] = system: dengue virus type 2; assay: Functional CPE-based assay to measure dose dependent changes in antiviral-drug inhibitory efficacy against Dengue virus type 2 New Guinea C in Huh7 cells. Cells are treated with antiviral candidates that are serially diluted. EC50 is reported via analysis of MTT/MTS assay as a readout of CPE. The assay has been performed by National Institute of Allergy and Infectious Diseases.; type: organism-based, Homo sapiens; details: Huh-7
[9] = system: dengue virus type 2; assay: as §2, with “cells.” for “cells (cotreated with P-gp inhibitor, Elacridar).”; type: organism-based, Chlorocebus sabaeus; details: for EC50: VeroE6/TMPRSS2; for EC90: VeroE6/TMPRSS2, Baseline response 0 %, Maximum response 100 %
[10] = system: Middle East respiratory syndrome-related coronavirus; assay: microbe, parasite or virus in culture; type: functional, organism-based, Chlorocebus sabaeus; details: VeroE6/TMPRSS2

Question: Which results are given for `O=C(Nc1ccc2c(c1)CNC2)c1cc(Cl)cc2[nH]ncc12`?
Answer: EC50 ([1]; Dengue virus, Vero C1008): > 50 µM; EC90 ([1]; Dengue virus, Vero C1008, Maximum measured 2.237 %, Minimum measured -2.116 %, P-gp concentration 100 nM, P-gp inhibitor CP100356): > 50 µM; EC90 ([1]; Dengue virus, Vero C1008, Maximum measured 108.122 %, Minimum measured 103.322 %, P-gp concentration 500 nM, P-gp inhibitor CP100356): > 50 µM; EC90 ([1]; Dengue virus, Vero C1008, Maximum measured 122.049 %, Minimum measured 106.43 %, P-gp concentration 500 nM, P-gp inhibitor CP100356): > 50 µM; EC90 ([2]; EC90 CI (lower) 3.61 uM, EC90 CI (upper) 15.25 uM, Hill slope 2.511, Maximum measured 126.79 %, Minimum measured 6.324 %, P-gp concentration 500 nM, R squared 0.896): 7.42 µM; EC50 ([2]; Zika virus, Vero C1008): 4.57 µM; EC90 ([2]; Zika virus, Vero C1008, EC90 CI (lower) 7.143 uM, EC90 CI (upper) 23.592 uM, Hill slope 2.106, Maximum measured 121.753 %, Minimum measured 3.066 %, P-gp concentration 100 nM, R squared 0.93): 13 µM; EC50 ([2]; vero c1008): 3.09 µM; EC50 ([3]; Dengue virus, VeroE6/TMPRSS2): > 50 µM; EC90 ([3]; Dengue virus, VeroE6/TMPRSS2, Maximum measured 202.528 %, Minimum measured 74.934 %, P-gp concentration 2 uM, P-gp inhibitor Elacidar): > 50 µM; EC50 ([4]; Zika virus, VeroE6/TMPRSS2): 12.7 µM; EC90 ([4]; Zika virus, VeroE6/TMPRSS2, Baseline response 0 %, Hill slope -1.535, Maximum measured 150.297 %, Maximum response 100 %, Minimum measured 39.396 %, P-gp concentration 2 uM, R squared 0.523, P-gp inhibitor Elacidar): > 16.7 µM; EC90 ([5]; Zika virus, Vero C1008, Baseline response 0 %, Hill slope 1.599, Maximum measured 39.692 %, Maximum response 100 %, Minimum measured -0.234 %, R squared 0.961): > 50 µM; EC90 ([5]; Zika virus, Vero C1008, Baseline response 0 %, Hill slope 4.496, Maximum measured 86.5 %, Maximum response 100 %, Minimum measured 2.921 %, R squared 0.876): > 50 µM; EC90 ([5]; Zika virus, Vero C1008, Baseline response 0 %, EC90 CI (lower) 23.876 uM, EC90 CI (upper) 46.036 uM, Hill slope 2.096, Maximum measured 107.811 %, Maximum response 100 %, Minimum measured 2.258 %, R squared 0.969): 33.1 µM; EC50 ([5]; vero c1008): 34 µM and > 50 µM and 11.6 µM; EC50 ([6]; Vero C1008): > 50 µM; EC90 ([6]; Vero C1008, Baseline response 0 %, Hill slope -0.996, Maximum measured 1.395 %, Maximum response 100 %, Minimum measured -3.373 %, R squared 0.016): > 50 µM

Question: What does the source list for `CC(C)CNC(=O)c1cc(Cl)ccc1NS(=O)(=O)c1ccc(Oc2ccccc2Cl)cc1`?
Answer: EC50 ([1]; Dengue virus, Vero C1008): 5.64 µM; EC90 ([1]; Dengue virus, Vero C1008, Baseline response 0 %, Hill slope -37.142, Maximum measured 110.023 %, Maximum response 100 %, Minimum measured 0.325 %, P-gp concentration 500 nM, R squared 0.985, P-gp inhibitor CP100356): 5.99 µM; EC50 [7]: 4.4 µM; EC90 ([7]; VeroE6/TMPRSS2, Baseline response 0 %, Hill slope -0.566, Maximum measured 86.366 %, Maximum response 100 %, Minimum measured 3.533 %, R squared 0.722): > 50 µM; EC50 [8]: > 6.5 µM; EC90 ([3]; Baseline response 0 %, EC90 CI (lower) 0.741 uM, EC90 CI (upper) 4.671 uM, Hill slope -3.39, Maximum measured 117.923 %, Maximum response 100 %, Minimum measured 16.6 %, P-gp concentration 2 uM, R squared 0.718, P-gp inhibitor Elacidar): 6.8 µM; EC90 ([3]; Baseline response 0 %, EC90 CI (lower) […] uM, EC90 CI (upper) 0.019 uM, Hill slope -1.255, Maximum measured 118.581 %, Maximum response 100 %, Minimum measured 5.952 %, P-gp concentration 2 uM, R squared 0.745, P-gp inhibitor Elacidar): 0.18 µM; EC90 ([3]; Dengue virus, VeroE6/TMPRSS2, Maximum measured 165.458 %, Minimum measured 88.019 %, P-gp concentration 2 uM, P-gp inhibitor Elacidar): > 16.7 µM; EC90 ([4]; Baseline response 0 %, EC90 CI (lower) 6.158 uM, EC90 CI (upper) 70.47 uM, Hill slope -6.578, Maximum measured 126.059 %, Maximum response 100 %, Minimum measured 2.779 %, P-gp concentration 2 uM, R squared 0.75, P-gp inhibitor Elacidar): 40.6 µM; EC90 ([4]; Zika virus, VeroE6/TMPRSS2): 32.4 µM; EC90 ([4]; Zika virus, VeroE6/TMPRSS2, Maximum measured 119.408 %, Minimum measured 55.418 %, P-gp concentration 2 uM, P-gp inhibitor Elacidar): > 3.33 µM; EC50 ([4]; veroe6/tmprss2): > 3.33 µM and 19.2 µM and 29.1 µM; EC50 ([5]; Zika virus, Vero C1008): > 50 µM; EC90 ([5]; Zika virus, Vero C1008, Maximum measured -0.388 %, Minimum measured -2.415 %): > 50 µM; EC50 [9]: 0.569 µM; EC90 ([9]; Hill slope -0.624, Maximum measured 99.166 %, Minimum measured 12.707 %, R squared 0.743): > 16.7 µM

Question: Which results are given for `C=CC[C@H](Nc1cccc(-c2nn[nH]n2)c1)c1cc(Cl)cc2[nH]ncc12`?
Answer: EC50 [10]: 0.988 µM; EC90 [10]: 2.78 µM

Question: What does the source list for `CC(C)CNC(=O)c1cc(Cl)c(F)cc1NS(=O)(=O)c1ccc(Oc2ccccc2Cl)cc1`?
Answer: EC90 ([1]; Baseline response 0 %, Hill slope -36.406, Maximum measured 110.21 %, Maximum response 100 %, Minimum measured 0.136 %, P-gp concentration 500 nM, R squared 0.986, P-gp inhibitor CP100356): 5.99 µM; EC50 ([1]; Dengue virus, Vero C1008): 5.32 µM; EC90 ([1]; Dengue virus, Vero C1008): 5.85 µM; EC50 ([1]; vero c1008): 5.64 µM; EC50 [7]: > 50 µM; EC90 ([7]; VeroE6/TMPRSS2, Maximum measured 624.218 %, Minimum measured 63.552 %): > 50 µM; EC50 [8]: > 3.1 µM; EC90 ([3]; Dengue virus, VeroE6/TMPRSS2): 1.89 µM; EC90 ([3]; Dengue virus, VeroE6/TMPRSS2, Maximum measured 155.684 %, Minimum measured 125.095 %, P-gp concentration 2 uM, P-gp inhibitor Elacidar): > 5.56 µM; EC90 ([4]; Baseline response 0 %, Hill slope -1.279, Maximum measured 136.576 %, Maximum response 60 %, Minimum measured 13.183 %, P-gp concentration 2 uM, R squared 0.138, P-gp inhibitor Elacidar): > 50 µM; EC90 ([4]; Baseline response 0 %, Hill slope -13.406, Maximum measured 146.245 %, Maximum response 100 %, Minimum measured 54.335 %, P-gp concentration 2 uM, R squared 0.12, P-gp inhibitor Elacidar): > 16.7 µM; EC50 ([4]; Zika virus, VeroE6/TMPRSS2): > 16.7 µM; EC50 ([4]; veroe6/tmprss2): 27.9 µM; EC50 ([5]; Zika virus, Vero C1008): > 50 µM; EC90 ([5]; Zika virus, Vero C1008, Baseline response 0 %, Hill slope -1.049, Maximum measured 4.723 %, Maximum response 100 %, Minimum measured -5.364 %, R squared 0.235): > 50 µM; EC90 ([5]; Zika virus, Vero C1008, Maximum measured 0.142 %, Minimum measured -3.427 %): > 50 µM; EC90 ([5]; Zika virus, Vero C1008, Maximum measured 0.689 %, Minimum measured -11.388 %): > 50 µM; EC50 [9]: 0.193 µM; EC90 ([9]; Hill slope -0.469, Maximum measured 101.396 %, Minimum measured 33.359 %, R squared 0.321): > 1.85 µM
